Source: PMC10537229, “Antimicrobial Peptides Originating from Expression Libraries of Aurelia aurita and Mnemiopsis leidyi Prevent Biofilm Formation of Opportunistic Pathogens” (Microorganisms, 2023)

Assays:
K. oxytoca [1] = assay: Biofilm prevention in vitro assay (crystal violet, static); type: cell-based, Klebsiella oxytoca; conditions: synthetic peptide at highest concentration 112.5 µg/mL, 18 h, versus biofilm control (100%)
Procedure: (§1) The opportunistic pathogenic bacteria K. oxytoca (DSM 7342, M5a1-type strain), P. aeruginosa PAO1 (DSM 1707, pathogenic-type strain), S. epidermidis RP62A (DSM 28319, clinical isolate from catheter sepsis), and S. aureus (DSM 11823, clinical isolate) were grown in 5 mL LB medium overnight at below-indicated temperatures. The cell concentrations of the overnight cultures were analyzed with Neubauer cell counting and set to 3 × 10^8 cells/mL using GC minimal medium (with 1% (v/v) glycerol and 0.3% (w/v) casamino acids) for K. oxytoca and Caso bouillon (17 g/L casein peptone, 3 g/L soybean peptone, 5 g/L NaCl, 2.5 g/L K2HPO4, and 2.5 g/L glucose) for the remaining strains in the crystal violet assay. Cultures were aliquoted in 96-well plates (180/195 µL for each cavity). Cell-free size-fractionated cell extracts (20 µL) and synthesized peptides (various concentrations, 5 µL) were added to the cultures. MTPs were closed with gas-permeable membranes (Breathe-Easy®, Diversified Biotech, Dedham, MA, USA) and incubated at 37 °C (P. aeruginosa, S. aureus, and S. epidermidis) or 30 °C (K. oxytoca) for 18 h without shaking. Three biological replicates were performed, each with eight technical replicates. Medium controls were performed for normalization. Biofilm formation was monitored and quantified using the crystal violet assay. Following an 18 h incubation period, the cell cultures were removed, and the wells underwent two washes with H2O. Biofilms that developed and adhered to the surfaces were subjected to staining using 200 μL of a 0.1% crystal violet solution (Carl Roth, Karlsruhe, Germany) for 10 min at room temperature (RT). The stained biofilms were left to air dry after eliminating the crystal violet solution through two H2O washes. A total of 200 μL of 96% ethanol was introduced into each stained well to solubilize the dye, and incubation at RT for 15 min followed. Biofilm formation was assessed by measuring the absorbance of resolved crystal violet at 590 nm with the plate reader Spectra max Plus 384 (Molecular Devices, Ismaning; Germany). The screening procedure is depicted in Figure S1.

P. aeruginosa PAO1 = assay: as above; type: cell-based, Pseudomonas aeruginosa; conditions: 18 h
Procedure: as §1

S. epidermidis RP62A = assay: as above; type: cell-based, Staphylococcus epidermidis; conditions: synthetic peptide at highest concentration 112.5 µg/mL, 18 h, versus biofilm control (100%)
Procedure: as §1

[2] = test system: K. oxytoca, P. aeruginosa, S. epidermidis, and S. aureus; assay: Crystal violet biofilm assay, statements on all tested pathogens; type: cell-based; conditions: summary in discussion
Procedure: as §1, with “Three biological replicates were performed, each with eight technical replicates. Medium controls were performed for normalization.” left out, “Following an 18 h incubation period, the cell cultures were removed, and the wells underwent two washes with H2O. Biofilms that developed and adhered to the surfaces were subjected to staining using 200 μL of a 0.1% crystal violet solution (Carl Roth, Karlsruhe, Germany) for 10 min at room temperature (RT). The stained biofilms were left to air dry after eliminating the crystal violet solution through two H2O washes. A total of 200 μL of 96% ethanol was introduced into each stained well to solubilize the dye, and incubation at RT for 15 min followed.” left out, “The screening procedure is depicted in Figure S1.” left out

K. oxytoca [3] = assay: Growth of planktonic-growing pathogens (turbidity at 600 nm); type: cell-based, Klebsiella oxytoca; conditions: 112.5 µg/mL peptide, LB, 18 h, 80 rpm, 30 °C; mean of 2 biological x 8 technical replicates; control 1.21326667
Procedure: (§2) In addition, the potential growth-inhibiting effects of synthetic peptides were tested on planktonic-growing pathogens. Again, 3 × 10^8 cells/mL diluted in LB medium were aliquoted in 96-well plates (200 µL for each cavity). Synthetic peptides were added to two selected final concentrations of 3.5 µg/mL and 112.5 µg/mL at the beginning of the experiment. MTPs were closed with gas-permeable membranes and gently shaken at 80 rpm and 37 °C (P. aeruginosa, S. aureus, and S. epidermidis) or 30 °C (K. oxytoca) for 18 h. A comparative endpoint determination (growth control, peptide control IDR-1018, and identified peptides) of the turbidity at 600 nm was measured with plate reader Spectra max Plus 384. An unpaired t-test was conducted as a statistical hypothesis test to determine the significance (p-value) of growth differences.

P. aeruginosa = assay: as above; type: cell-based, Pseudomonas aeruginosa; conditions: 18 h
Procedure: as §2

S. aureus = assay: as above; type: cell-based, Staphylococcus aureus; conditions: 18 h
Procedure: as §2

S. epidermidis = assay: as above; type: cell-based, Staphylococcus epidermidis; conditions: 18 h
Procedure: as §2

K. oxytoca M5aI = assay: Dynamic biofilm formation in microfluidic flow cell (Syto9, CLSM); type: cell-based, Klebsiella oxytoca; conditions: peptide 10 ng/channel, GC medium, flow 15 µL/h, 24 h, 30 °C, mean ± SD of four biological x four technical replicates
Description: The microfluidic flow cell system comprises a polymethyl methacrylate corpus with a single channel (1 × 8 × 0.1 mm). Two inlets and one outlet exist. A borosilicate glass (24 × 60 × 0.17 mm; Carl Roth, Karlsruhe, Germany) was fixed with the adhesive Black-Seal silicone (Weicon, Münster, Germany). Microliter syringes (Innovative Labor System GmbH, Stützenbach, Germany) were connected via polytetrafluoroethylene (PTFE) tubes (0.3 mm × 0.6 mm) (Bola, Grünsfeld, Germany) with the in- and outlets and clamped into a syringe pump (Model: 220) (KD Scientific, Holliston, MA, USA). The channel was sterilized by rinsing 70% EtOH for 24 h at a flow rate of 20 µL/h. Afterwards, the remaining ethanol was washed out with sterile water at 20 μL/h for 1 h. Subsequently, the channel was equilibrated with GC medium at 20 μL/h for 2 h. Inoculation was conducted with a cell suspension of 1 × 10^9 cells/mL, generated from an overnight culture of K. oxytoca M5aI. Initial cell adhesion was ensured by incubation at 30 °C for 1 h without any flow. Next, the channel was continuously rinsed at 15 μL/h with GC medium injected within the first inlet. The synthetic peptides IDR-1018 (biofilm-preventing control peptide, [47, 48], BiP_Aa_2, BiP_Aa_5, and BiP_Aa_6 were diluted in GC medium to a concentration of 25 µg/mL and injected within the second inlet. Thus, the final peptide concentration was 12.5 µg/mL, corresponding to 10 ng peptide within the 0.8 µL channel. Biofilm formation was conducted at a flow rate of 15 µL/h for 24 h at 30 °C. The biofilm formation of K. oxytoca M5aI was further studied without adding peptides. Four biological replicates were conducted for each treatment.
Biofilms were stained with the fluorescent dye Syto9 (488 nm) (Life Technologie, Carlsbad, CA, USA) and analyzed using the LSM 700 confocal laser scanning microscope (Zeiss, Oberkochen, Germany). Therefore, the microfluidic flow cells were washed with GC medium at 3 µL/min for 15 min. The channel was then filled with a 1:1000 dilution of the fluorescent dye Syto9 and incubated in the dark at RT for 30 min. Dye residues were removed by rinsing GC medium at 3 μL/min for 15 min. Four image stacks were recorded per flow cell with optical sections of 0.9 µm per z-step. The digital image acquisition, three-dimensional reconstruction, and calculation of the biofilm parameters were performed with the software “Zen Black” (version 14.0.22.201) (Zeiss, Oberkochen, Germany) and the microscopy image analysis software “Imaris” (version 9.9.0) (Oxford Instruments, Abingdon, UK).

[4] = 112.5 µg/mL, versus control without peptide

VRNSVLFRRRRLVC [BiP_Aa_5, synthetic peptide from sORF of A. aurita EST clone 127_8F]
reduction of K. oxytoca biofilm formation at 112.5 µg/mL (K. oxytoca [1]): 54%
effect on P. aeruginosa biofilm formation (in words) (P. aeruginosa PAO1; synthetic peptide 0.4-112.5 µg/mL): slight interference
reduction of P. aeruginosa biofilm formation at 112.5 µg/mL (P. aeruginosa PAO1; synthetic peptide at highest dose 112.5 µg/mL, versus biofilm control (100%)): 47%
reduction of S. epidermidis biofilm formation at 112.5 µg/mL (S. epidermidis RP62A): 22%
reduction of biofilm masses, all tested pathogens [2]: up to 50%
turbidity (600 nm), K. oxytoca (K. oxytoca [3]): 1.257
turbidity (600 nm), P. aeruginosa (P. aeruginosa; 112.5 µg/mL peptide, LB, 80 rpm, 37 °C, mean of 2 biological x 8 technical replicates, control 1.2788369): 1.249
reduction of planktonic growth of P. aeruginosa (P. aeruginosa; [4]): 1.5–5%
turbidity (600 nm), S. aureus (S. aureus; 112.5 µg/mL peptide, LB, 80 rpm, 37 °C, mean of 2 biological x 8 technical replicates, control 1.37192917): 1.312
reduction of planktonic growth of S. aureus (S. aureus; [4]): 1.5–5%
turbidity (600 nm), S. epidermidis (S. epidermidis; 112.5 µg/mL peptide, LB, 80 rpm, 37 °C, mean of 2 biological x 8 technical replicates, control 1.3398): 1.301
reduction of planktonic growth of S. epidermidis (S. epidermidis; [4]): 3%
biofilm thickness (K. oxytoca M5aI; medium control 11 ± 6 µm): 7 ± 2 µm
biofilm volume (K. oxytoca M5aI; medium control 112 ± 62 µm^3): 51 ± 25 µm^3
